According to patent publication US12662491B2 (Redona Therapeutics, Inc., priority 2020, dated 2026):

Target: T1, Zcchc11 enzyme (Homo sapiens, UniProt Q5TAX3)
T1 construct: made in house; host or cells: HEK293 cells (Zcchc11); E. coli Rosetta II (LIN28A)
T1 sequence (Q5TAX3 212-1420): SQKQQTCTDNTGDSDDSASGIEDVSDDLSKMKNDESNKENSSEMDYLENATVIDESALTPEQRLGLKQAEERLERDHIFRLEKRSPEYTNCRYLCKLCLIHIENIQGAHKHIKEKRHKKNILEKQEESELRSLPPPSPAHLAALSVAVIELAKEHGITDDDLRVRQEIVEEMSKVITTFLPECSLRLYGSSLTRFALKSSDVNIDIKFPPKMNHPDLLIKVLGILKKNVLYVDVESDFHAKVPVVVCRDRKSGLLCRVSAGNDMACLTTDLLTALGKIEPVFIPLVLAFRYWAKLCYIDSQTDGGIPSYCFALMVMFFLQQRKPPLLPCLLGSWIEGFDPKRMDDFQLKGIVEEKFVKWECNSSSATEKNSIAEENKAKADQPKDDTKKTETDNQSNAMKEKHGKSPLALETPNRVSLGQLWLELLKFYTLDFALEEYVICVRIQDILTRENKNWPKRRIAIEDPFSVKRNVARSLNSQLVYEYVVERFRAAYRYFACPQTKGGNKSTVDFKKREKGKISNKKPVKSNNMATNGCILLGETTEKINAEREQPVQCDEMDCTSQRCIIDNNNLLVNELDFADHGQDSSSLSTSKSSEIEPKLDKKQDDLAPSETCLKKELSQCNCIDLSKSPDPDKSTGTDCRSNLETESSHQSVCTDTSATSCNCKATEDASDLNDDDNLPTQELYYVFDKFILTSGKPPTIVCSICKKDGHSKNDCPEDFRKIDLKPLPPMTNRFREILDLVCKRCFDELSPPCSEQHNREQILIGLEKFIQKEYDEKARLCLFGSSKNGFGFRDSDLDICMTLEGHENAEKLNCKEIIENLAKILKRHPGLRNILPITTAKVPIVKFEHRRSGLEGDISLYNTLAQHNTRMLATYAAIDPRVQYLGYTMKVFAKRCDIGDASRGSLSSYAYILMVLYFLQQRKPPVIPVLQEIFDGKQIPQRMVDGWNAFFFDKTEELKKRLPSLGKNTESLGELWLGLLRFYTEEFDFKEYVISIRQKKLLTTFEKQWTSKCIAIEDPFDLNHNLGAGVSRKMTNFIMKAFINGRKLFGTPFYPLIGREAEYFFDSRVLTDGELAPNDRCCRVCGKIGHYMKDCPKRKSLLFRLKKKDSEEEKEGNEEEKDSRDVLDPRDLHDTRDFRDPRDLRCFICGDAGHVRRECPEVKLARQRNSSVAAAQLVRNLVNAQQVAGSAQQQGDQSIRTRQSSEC
Assay: TUTase assay (Zcchc11 assay, Lin28a-dependent polyuridylation of pre-let-7)
Format: biochemical
Details: Lin28a-dependent Zcchc11 (Z11) TUTase assay; read-out: Potency Lin28a-dep Z11 IC50
How it was run: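 Human Zcchc11 residues 212-1420 (HEK293-expressed, MBP tag cleaved, C-terminal FLAG) at 0.2 nM, with 10 nM full-length human LIN28A and 2 nM 5′-fluorescein pre-let-7, preincubated with compound 30 min at room temperature. Reaction started with 5 uM UTP plus 4 nM 3′-rhodamine A20 quench probe; fluorescein loss read kinetically, IC50 from initial rates.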

Compound	IC50 [nM]
O=C(O)c1cn(-c2ccc(Cl)cc2)c2cc(N3CCC[C@@H]3COc3ccccn3)c(F)cc2c1=O [Example 377, (R)-1-(4-chlorophenyl)-6-fluoro-4-oxo-7-(2-((pyridin-2-yloxy)methyl)pyrrolidin-1-yl)-1,4-dihydroquinoline-3-carboxylic acid]	≤ 1000
O=C(O)c1cn(-c2ccc(O)cc2F)c2cc(N3CCC[C@@H]3COc3ccccn3)c(F)cc2c1=O [Example 381, (R)-6-fluoro-1-(2-fluoro-4-hydroxyphenyl)-4-oxo-7-(2-((pyridin-2-yloxy)methyl)pyrrolidin-1-yl)-1,4-dihydroquinoline-3-carboxylic acid]	1000 to 10000
O=C(O)c1cn(-c2ccc(O)cc2)c2cc(N3CCC[C@@H]3COc3ccccn3)c(F)cc2c1=O [Example 382, (R)-6-fluoro-1-(4-hydroxyphenyl)-4-oxo-7-(2-((pyridin-2-yloxy)methyl)pyrrolidin-1-yl)-1,4-dihydroquinoline 3-carboxylic acid]	≤ 1000
O=C(O)c1cn(-c2ccc(O)cc2Cl)c2cc(N3CCC[C@@H]3COc3ccccn3)c(F)cc2c1=O [Example 384, (R)-1-(2-chloro-4-hydroxyphenyl)-6-fluoro-4-oxo-7-(2-((pyridin-2-yloxy)methyl)pyrrolidin-1-yl)-1,4-dihydroquinoline-3-carboxylic acid]	1000 to 10000
O=C(O)c1cn(-c2cc(F)ccc2F)c2cc(N3CCC[C@@H]3COc3ccccn3)c(F)cc2c1=O [Example 387, (R)-1-(2,5-difluorophenyl)-6-fluoro-4-oxo-7-(2-((pyridin-2-yloxy)methyl)pyrrolidin-1-yl)-1,4-dihydroquinoline-3-carboxylic acid]	1000 to 10000

Other lines, results leading:

IC50 [nM]	Compound
1000 to 10000	O=C(O)c1cn(-c2cccc(F)c2F)c2cc(N3CCC[C@@H]3COc3ccccn3)c(F)cc2c1=O [Example 376, (R)-1-(2,3-difluorophenyl)-6-fluoro-4-oxo-7-(2-((pyridin-2-yloxy)methyl)pyrrolidin-1-yl)-1,4-dihydroquinoline-3-carboxylic acid]
≤ 1000	O=C(O)c1cn(-c2ccc(F)cc2)c2cc(N3CCC[C@@H]3COc3ccccn3)c(F)cc2c1=O [Example 378, (R)-6-fluoro-1-(4-fluorophenyl)-4-oxo-7-(2-((pyridin-2-yloxy)methyl)pyrrolidin-1-yl)-1,4-dihydroquinoline-3-carboxylic acid]
1000 to 10000	O=C(O)c1cn(-c2ccc(F)c(F)c2)c2cc(N3CCC[C@@H]3COc3ccccn3)c(F)cc2c1=O [Example 379, (R)-1-(3,4-difluorophenyl)-6-fluoro-4-oxo-7-(2-((pyridin-2-yloxy)methyl)pyrrolidin-1-yl)-1,4-dihydroquinoline-3-carboxylic acid]
1000 to 10000	O=C(O)c1cn(-c2ccc(F)cn2)c2cc(N3CCC[C@@H]3COc3ccccn3)c(F)cc2c1=O [Example 380, (R)-6-fluoro-1-(5-fluoropyridin-2-yl)-4-oxo-7-(2-((pyridin-2-yloxy)methyl)pyrrolidin-1-yl)-1,4-dihydroquinoline-3-carboxylic acid]
10000 to 50000	O=C(O)c1cn(-c2ccc(O)cc2C(F)(F)F)c2cc(N3CCC[C@@H]3COc3ccccn3)c(F)cc2c1=O [Example 383, (R)-6-fluoro-1-(4-hydroxy-2-(trifluoromethyl)phenyl)-4-oxo-7-(2-((pyridin-2-yloxy)methyl)pyrrolidin-1-yl)-1,4-dihydroquinoline-3-carboxylic acid]
≤ 1000	O=C(O)c1cn(-c2ccc(O)c(F)c2)c2cc(N3CCC[C@@H]3COc3ccccn3)c(F)cc2c1=O [Example 385, (R)-6-fluoro-1-(3-fluoro-4-hydroxyphenyl)-4-oxo-7-(2-((pyridin-2-yloxy)methyl)pyrrolidin-1-yl)-1,4-dihydroquinoline-3-carboxylic acid]
1000 to 10000	O=C(O)c1cn(-c2cc(F)ccc2Cl)c2cc(N3CCC[C@@H]3COc3ccccn3)c(F)cc2c1=O [Example 386, (R)-1-(2-chloro-5-fluorophenyl)-6-fluoro-4-oxo-7-(2-((pyridin-2-yloxy)methyl)pyrrolidin-1-yl)-1,4-dihydroquinoline-3-carboxylic acid]
